Experimental data taken from patent US8088817B2, “Pyrrole derivative having, as substituents, ureido group, aminocarbonly group and bicyclic group which may have substituent” (Santen Pharmaceutical Co., Ltd., priority 2008, dated 2012).

System: TNF-α-induced IL-6 production in normal human skin fibroblast-derived CCD-1059Sk cells
Assay: Test for measurement of inhibitory activity against TNF-α-induced IL-6 production in CCD-1059Sk cells (HTRF Human IL-6 kit)
Format: cell-based
Conditions: test compound at 10 μM; TNF-α-stimulated CCD-1059Sk cells, 16 hours; inhibition ratio which is 100% or more is indicated to be 100%
Procedure: 1. Test for Measurement of Inhibitory Activity Against IL-6 Production
An inhibitory effect on TNF-α-induced IL-6 production in normal human skin fibroblast-derived CCD-1059Sk cells (ATCC No. CRL-2072) was evaluated. The amount of IL-6 was determined by the homogeneous time-resolved fluorescence method using HTRF™ Human IL-6 kit (Cat. No. 62IL6PEB, manufactured by CIS-Bio international, Inc.). Specific test methods will be described below.
(Preparation of Test Compound Solution)
After a test compound was dissolved in dimethyl sulfoxide, the resulting solution was diluted with D-MEM medium containing 0.1% heat-inactivated fetal bovine serum, 0.1 mM MEM non-essential amino acid solution, 100 U/mL penicillin and 100 μg/mL streptomycin (hereinafter referred to as “medium”), whereby a 40 μM test compound solution was prepared.
(Test Method and Measurement Method)
1) CCD-1059Sk cells prepared at a density of 3×10^5 cells/mL were inoculated in a 384-well plate in an amount of 10 μL per well such that the cell density was 3×10^3 cells/well.
2) After the plate was incubated at 37° C. for several hours in a CO2 incubator, 5 μL of the test compound solution was added to each well.
3) After the plate was incubated at 37° C. for 1 hour in a CO2 incubator, 5 μL of a 40 ng/mL TNF-α solution was added to each well.
4) After the plate was incubated at 37° C. for 16 hours in a CO2 incubator, 10 μL of a cryptate-labeled anti-IL-6 antibody and an XL665-labeled anti-IL-6 antibody containing potassium fluoride were added to each well.
5) After the plate was incubated at room temperature for several hours, a fluorescence intensity ratio (665 nm/620 nm) was determined for each well using a multimode plate reader Analyst™ HT (manufactured by Molecular Device Corporation) and Criterion Host software version 2.00 (manufactured by Molecular Device Corporation), and then, the amount of IL-6 was calculated.
6) The same procedures as in the above 1) to 5) were performed except that 0.4% dimethyl sulfoxide was added in place of the test compound, and the obtained result was designated as the control.
7) The same procedures as in the above 1) to 5) were performed except that 0.4% dimethyl sulfoxide and the medium were added in place of the test compound and the TNF-α solution, respectively, and the obtained result was designated as the background.
(Calculation Formula of IL-6 Production Inhibition Ratio)
An IL-6 production inhibition ratio (%) was calculated from the following equation. IL-6 Production Inhibition Ratio(%)=100×{1−[(Amount of IL-6 for Test Compound)−(Amount of IL-6 for Background)]/[(Amount of IL-6 for Control)−(Amount of IL-6 for Background)]} (Evaluation Results)

Q: For `NC(=O)Nc1[nH]c(-c2cccc3c2OCC3)cc1C(N)=O` [Compound No. 3-1, 2-Aminocarbonylamino-5-(2,3-dihydrobenzofuran-7)pyrrole-3-carboxamide], which “IL-6 production inhibition ratio (%)” value is on record?
A: The value was no less than 100%.

Q: Which “IL-6 production inhibition ratio (%)” value does the source give for `NC(=O)Nc1[nH]c(-c2ccc3ccccc3c2)cc1C(N)=O` [Compound No. 1-1, 2-Aminocarbonylamino-5-(2-naphthyl)pyrrole-3-carboxamide] here?
A: Its value is 90%.

Q: Which “IL-6 production inhibition ratio (%)” value does the source give for `NC(=O)Nc1[nH]c(-c2ccc3occc3c2)cc1C(N)=O` [Compound No. 1-8, 2-Aminocarbonylamino-5-(benzofuran-5-yl)pyrrole-3-carboxamide] here?
A: The value was 86%.

Q: `NC(=O)Nc1[nH]c(-c2cccc3c2OCCO3)cc1C(N)=O` [Compound No. 1-12, 2-Aminocarbonylamino-5-(2,3-dihydro-1,4-benzodioxin-5-yl)pyrrole-3-carboxamide] was tested. Which “IL-6 production inhibition ratio (%)” value did it give?
A: Its value is 97%.

Q: For `Cc1c(-c2cc(C(N)=O)c(NC(N)=O)[nH]2)sc2ccccc12` [Compound No. 1-15, 2-Aminocarbonylamino-5-(3-methylbenzothiophen-2-yl)pyrrole-3-carboxamide], which “IL-6 production inhibition ratio (%)” value is on record?
A: The value was 98%.

Q: With `NC(=O)Nc1[nH]c(-c2cc3ccccc3o2)cc1C(N)=O` [Compound No. 1-5, 2-Aminocarbonylamino-5-(benzofuran-2-yl)pyrrole-3-carboxamide] as the molecule, how does the “IL-6 production inhibition ratio (%)” value read?
A: The value was 98%.

Q: `NC(=O)Nc1[nH]c(-c2ccc3sccc3c2)cc1C(N)=O` [Compound No. 1-6, 2-Aminocarbonylamino-5-(benzothiophen-5-yl)pyrrole-3-carboxamide] was tested. Which “IL-6 production inhibition ratio (%)” value did it give?
A: The value was 95%.
